US9433621B2, “Substituted pyridine and pyrimidine derivatives and their use in treating viral infections” (Merck Sharp & Dohme Corp., priority 2010, dated 2016)

Each molecule was assayed on HCV replicon (assay: Cell-Based HCV Replicon Assay). Details: HCV Replicon assay, EC90 range, Table VI; read-out: EC90.
Procedure, shortened: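 EC50 and EC90 taken from sigmoid fits of ΔCT (5B minus GAPDH) as the concentrations raising ΔCT by 1 and 3.2 over baseline, via multiplex real-time RT-PCR on lysates after 3 days. Replicon cells at 5000/well; 10 two-fold dilutions from 25–1 μM, 0.5% DMSO, 10% FBS.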
In the case of `Cc1nc(NC(C)C2CC(F)(F)C2)nc(N[C@@H]2C[C@H](CO)[C@@H](O)[C@H]2O)c1-c1nc2c(C)nccc2s1` (stereo partly drawn) [Example 5308], the EC90 is reported as < 500 nM.

Same assay, conditions: Hepatitis C virus, 72 h; Table IV; replicon cells, day 3, real time PCR; EC90 = concentration for ΔCT=3.2 over baseline; read-out: EC90
`Cc1ccc([C@@H](C)Nc2nc(C)c(-c3nc4c(C)nccc4s3)c(N[C@@H]3C[C@H](CO)[C@@H](O)[C@@]3(C)O)n2)cc1` [compound 3815] showed an EC90 of 30 nM.

Same assay, conditions: Hepatitis C virus; HCV Replicon assay, EC90 range, Table VI; read-out: EC90
In the case of `CO[C@H]1C[C@H](CNc2nc(C)c(-c3nc4c(C5CC5)nccc4s3)c(N[C@@H]3C[C@H](CO)[C@@H](O)[C@H]3O)n2)C1` [Example 5296], the EC90 is reported as < 500 nM. With `Cc1nc(NCC2CC(F)(F)C2)nc(N[C@@H]2C[C@H](CO)C(O)[C@H]2O)c1-c1nc2c(C3CC3)nccc2s1` (stereo partly drawn) [Example 5297] the EC90 was < 500 nM. For `CCO[C@H]1C[C@H](CNc2nc(C)c(-c3nc4c(C5CC5)nccc4s3)c(N[C@@H]3C[C@H](CO)[C@@H](O)[C@H]3O)n2)C1` [Example 5298], the EC90 was < 500 nM. In the case of `CO[C@H]1C[C@@H]([C@@H](C)Nc2nc(C)c(-c3nc4c(C5CC5)nccc4s3)c(N[C@@H]3C[C@H](CO)[C@@H](O)[C@H]3O)n2)C1` [Example 5299], the EC90 is reported as < 500 nM. For `Cc1nc(NC(C)C2CC(F)(F)C2)nc(N[C@@H]2C[C@H](CO)C(O)[C@H]2O)c1-c1nc2c(C3CC3)nccc2s1` (stereo partly drawn) [Example 5300], the EC90 was < 500 nM. In the case of `Cc1nc(NCC2CC3(CC3)C2)nc(N[C@@H]2C[C@H](CO)[C@@H](O)[C@H]2O)c1-c1nc2c(C3CC3)nccc2s1` [Example 5301], the EC90 is reported as < 500 nM. With `CO[C@H]1C[C@H]([C@@H](C)Nc2nc(C)c(-c3nc4c(C)nccc4s3)c(N[C@@H]3C[C@H](CO)[C@@H](O)[C@H]3O)n2)C1` [Example 5302] the EC90 was < 500 nM. In the case of `CO[C@H]1C[C@H]([C@@H](C)Nc2nc(C)c(-c3nc4c(C5CC5)nccc4s3)c(N[C@@H]3C[C@H](CO)[C@@H](O)[C@H]3O)n2)C1` [Example 5303], the EC90 is reported as < 500 nM. With `Cc1nc(N)nc(N[C@@H]2C[C@H](CC(C)(C)O)[C@@H](O)[C@H]2O)c1-c1nc2c(C)nccc2s1` [Example 5304] the EC90 was < 500 nM. With `Cc1nc(NC(C)C2CC(F)(F)C2)nc(N[C@@H]2C[C@H](CO)[C@@H](O)[C@H]2O)c1-c1nc2c(C3CC3)nccc2s1` (stereo partly drawn) [Example 5305] the EC90 was 500 to 5000 nM. For `CCO[C@H]1C[C@H](CNc2nc(C)c(-c3nc4c(C)nccc4s3)c(N[C@@H]3C[C@H](CC(C)(C)O)[C@@H](O)[C@H]3O)n2)C1` [Example 5306], the EC90 was < 500 nM. For `COCCNc1nc(C)c(-c2nc3c(C)nccc3s2)c(N[C@@H]2C[C@H](CC(C)(C)O)[C@@H](O)[C@H]2O)n1` [Example 5307], the EC90 was < 500 nM. In the case of `Cc1nc(NCCSC(C)(C)C)nc(N[C@@H]2C[C@H](CC(C)(C)O)[C@@H](O)[C@H]2O)c1-c1nc2c(C)nccc2s1` [Example 5309], the EC90 is reported as < 500 nM. In the case of `COC[C@@H](C)Nc1nc(C)c(-c2nc3c(C)nccc3s2)c(N[C@@H]2C[C@H](CC(C)(C)O)[C@@H](O)[C@H]2O)n1` [Example 5310], the EC90 is reported as < 500 nM. With `CO[C@H](C)CNc1nc(C)c(-c2nc3c(C)nccc3s2)c(N[C@@H]2C[C@H](CC(C)(C)O)[C@@H](O)[C@H]2O)n1` [Example 5311] the EC90 was < 500 nM. In the case of `Cc1nc(NCC2CC(F)(F)C2)nc(N[C@@H]2C[C@H](CC(C)(C)O)[C@@H](O)[C@H]2O)c1-c1nc2c(C)nccc2s1` [Example 5312], the EC90 is reported as < 500 nM.
